Measurements reported in publication PMC3743865, “The FLT3 Inhibitor Quizartinib Inhibits ABCG2 at Pharmacologically Relevant Concentrations, with Implications for Both Chemosensitization and Adverse Drug Interactions” (PLoS ONE, 2013).

Key:
ABCB1 = ABCB1 (Homo sapiens, UniProt P08183); assay: biochemical
ABCG2 = molecular target: T1, ABCG2 (Homo sapiens, UniProt Q9UNQ0); assay: biochemical
T1 sequence (Q9UNQ0 1-655): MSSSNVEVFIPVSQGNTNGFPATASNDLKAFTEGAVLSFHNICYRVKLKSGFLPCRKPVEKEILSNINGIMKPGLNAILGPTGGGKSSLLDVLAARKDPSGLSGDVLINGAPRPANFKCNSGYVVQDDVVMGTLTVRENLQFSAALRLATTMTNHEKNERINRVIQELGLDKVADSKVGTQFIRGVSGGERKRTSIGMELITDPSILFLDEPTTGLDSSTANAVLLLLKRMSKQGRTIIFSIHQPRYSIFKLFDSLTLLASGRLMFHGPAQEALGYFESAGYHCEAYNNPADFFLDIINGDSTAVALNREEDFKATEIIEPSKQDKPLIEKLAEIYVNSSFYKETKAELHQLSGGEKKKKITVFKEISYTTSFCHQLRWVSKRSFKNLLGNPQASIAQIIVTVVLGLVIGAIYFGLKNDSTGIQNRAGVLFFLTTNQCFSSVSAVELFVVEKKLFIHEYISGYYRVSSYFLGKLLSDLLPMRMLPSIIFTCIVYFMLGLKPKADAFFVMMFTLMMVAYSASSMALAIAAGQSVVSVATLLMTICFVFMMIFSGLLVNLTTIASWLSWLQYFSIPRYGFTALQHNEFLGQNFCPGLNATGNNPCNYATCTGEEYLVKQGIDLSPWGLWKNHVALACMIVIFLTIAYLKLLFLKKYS

ABCB1, sequence (P08183 whole entry): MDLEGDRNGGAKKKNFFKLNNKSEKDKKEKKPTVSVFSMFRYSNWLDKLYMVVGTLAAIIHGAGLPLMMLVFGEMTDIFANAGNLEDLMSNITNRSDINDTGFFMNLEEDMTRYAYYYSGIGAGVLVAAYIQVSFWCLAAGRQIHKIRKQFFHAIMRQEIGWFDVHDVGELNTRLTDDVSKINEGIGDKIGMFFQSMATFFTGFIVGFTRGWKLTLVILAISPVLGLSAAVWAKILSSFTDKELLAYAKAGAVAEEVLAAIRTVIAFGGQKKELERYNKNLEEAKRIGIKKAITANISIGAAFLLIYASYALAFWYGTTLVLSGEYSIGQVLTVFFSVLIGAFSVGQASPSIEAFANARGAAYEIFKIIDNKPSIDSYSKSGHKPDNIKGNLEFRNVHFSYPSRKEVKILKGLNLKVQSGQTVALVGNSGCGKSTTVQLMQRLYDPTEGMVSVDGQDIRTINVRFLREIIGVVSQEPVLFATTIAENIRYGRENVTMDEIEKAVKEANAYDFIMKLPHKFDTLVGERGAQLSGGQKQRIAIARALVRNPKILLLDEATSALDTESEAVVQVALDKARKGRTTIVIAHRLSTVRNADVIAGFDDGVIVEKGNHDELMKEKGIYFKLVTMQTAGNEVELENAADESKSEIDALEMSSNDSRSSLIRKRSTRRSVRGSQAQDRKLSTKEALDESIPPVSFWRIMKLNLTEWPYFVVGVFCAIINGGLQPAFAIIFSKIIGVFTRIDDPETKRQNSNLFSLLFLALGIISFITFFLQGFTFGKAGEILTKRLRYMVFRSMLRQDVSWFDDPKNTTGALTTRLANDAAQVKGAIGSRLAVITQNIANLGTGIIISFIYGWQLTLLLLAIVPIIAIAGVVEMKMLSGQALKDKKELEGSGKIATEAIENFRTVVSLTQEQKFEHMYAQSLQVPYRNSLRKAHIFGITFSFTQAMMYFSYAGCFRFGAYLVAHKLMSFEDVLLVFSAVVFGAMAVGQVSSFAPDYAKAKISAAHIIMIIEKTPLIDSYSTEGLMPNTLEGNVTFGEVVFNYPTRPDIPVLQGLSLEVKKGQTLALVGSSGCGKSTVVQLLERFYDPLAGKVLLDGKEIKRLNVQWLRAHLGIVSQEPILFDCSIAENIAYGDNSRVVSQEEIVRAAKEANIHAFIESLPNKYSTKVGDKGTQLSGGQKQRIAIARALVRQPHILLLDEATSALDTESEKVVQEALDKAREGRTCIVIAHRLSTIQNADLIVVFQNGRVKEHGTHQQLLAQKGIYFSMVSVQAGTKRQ

## CC(C)(C)c1cc(NC(=O)Nc2ccc(-c3cn4c(n3)sc3cc(OCCN5CCOCC5)ccc34)cc2)no1 [quizartinib]
ABCB1
  IC50: 3300 nM
ABCG2
  IC50: 70 nM
